Test results published in patent US12290533B2, “Extracellular vesicles and methods of using” (NUtech Ventures, priority 2018, dated 2025).
“Also recorded” adds a separate entry of the source.

Assays:
[1] = tested on: human umbilical vein endothelial cells (HUVEC); experiment: Uptake of fluorophore-labeled cow's milk exosomes into HUVECs; type: cell-based
[2] = tested on: human colon carcinoma Caco-2 cells; experiment: Uptake of FM 4-64-labeled bovine milk exosomes into Caco-2 cells; conditions: for effect on exosome transport: milk exosomes treated with protease
Experimental: Exosomes were isolated from bovine milk by differential centrifugation and authenticated as recommended by International Society for Extracellular Vesicles. […] Controls were incubated with solvent. Exosomes were labeled with FM4-64, and unlabeled fluorophore was removed. […] Transport kinetics were modelled using the Michaelis-Menten equation. One-way ANOVA and Bonferroni's multiple comparison were used for statistical analyses.
Caco-2 cells and IEC-6 cells were seeded at a density of 20,000 and 7000 cells/well, respectively, in 96-well plates, and allowed to adhere for 48 h, when cells were 75% confluent. The exosomes were labeled with the fluorophore, FM 4-64 (Molecular Probes). One microliter of a stock solution of FM 4-64 (5.9 mmol/L) was added to 1 mL of exosome suspension and incubated for 15 min at 37° C., and excess FM 4-64 was removed by ultracentrifugation at 120,000 3 g at 4° C. for 90 min. Transport studies were conducted using FM4-64-labeled exosomes using 3-110 mg of exosomal protein/well (Caco-2 cells) or 27-652 mg of exosomal protein/well (IEC-6 cells) and incubating cells for various periods of time to assess saturation kinetics; blanks were created using solvent. Assays were calibrated by quantifying the fluorescence of a known mass of exosomes labeled with FM 4-64. Exosome uptake was analyzed by measuring the cell fluorescence at 515 (excitation) and 640 nm (emission) using a Biotek FLx800 plate reader (BioTek Instru-ments). Fluorescence readings were corrected for cell autofluorescence by subtracting signals measured in cells incubated with exosome-depleted media. Transport kinetics was modeled using the Michaelis-Menten equation and nonlinear regression; modeling was conducted using GraphPad Prism 6.0 (GraphPad Software). […] Subsequent transport studies were conducted using incubation times of 8 hours for Caco-2 cells (FIG. 34B).
Transport kinetics was modeled using the Michaelis-Menten equation.

[3] = Bioavailability and distribution of fluorophore-labeled RNA and microRNA cargos in bovine milk exosomes; type: in vivo, Balb/c mice; conditions: for tissue distribution of fluorophore-labeled microRNA transfected into milk exosomes: oral gavage, 6 hours
Experimental: Exosomes were isolated from bovine milk using ultracentrifugation.
Labeling of exosomes and RNAs with synthetic fluorophores. […] All exosome preparations were utilized within 2 hours.

[4] = Bovine milk exosomes and miRNAs in embryos and placentas of pregnant mice at E16.5; type: in vivo
Description: The bioavailability of bovine milk exosomes and miRNAs in fetal circulation of pregnant mice was examined. DiR-labelled bovine milk exosomes (or unlabeled control bovine milk exosomes) were adminstered to pregnant mice at embryonic day 16.5 (E16.5) to embryos and placentas. […] Three independent experiments per each treatment and control.

[5] = tested on: rat small intestinal IEC-6 cells; experiment: Uptake of FM 4-64-labeled bovine milk exosomes into IEC-6 cells; type: cell-based; conditions: exosomes treated with 0.105 mMol/L trypsin for 30 mins
[6] = mouse, in vivo
Experimental: Exosomes were isolated from bovine milk using ultracentrifugation. Exosome membranes were labeled using the fluorophore, DiR, as described elsewhere herein. […] Identity, integrity, fine dispersion, and count of exosomes were assessed using transmission electron microscopy, western blots, and nanoparticle tracker (not shown). Exosomes were administered orally by gavage (1×10^12 exosomes/g) in BALB/c mice. Absorption and distribution of exosomes and their cargos was monitored at timed intervals for up to 24 h using an iBox® Small Animal Imaging system and LiCor Odyssey CLx. At timed intervals, mice were euthanized and various tissues were excised and collected for densitometry analysis using VisionWorks®LS and Image Studio software.
Studies were conducted in female Balb/c mice (Jackson Laboratory, stock number 000651), ages 8 to 20 weeks, unless noted otherwise.
Exosomes were labeled with the lipophilic fluorophore 1,1-dioctadecyl-3,3,3,3-tetrametylindotricarbocyanine iodide (DiR) as described elsewhere (see, e.g., Wiklander et al., J. Extracell. Vesicles 4:26316 (2015)). […] Free dyes and extra-exosomal synthetic microRNAs were removed by two PBS washes (120,000×g for 60 minutes), and 1×10^12 exosomes were administered per g body weight in a volume of less than 150 μl. […] All exosome preparations were utilized within 2 hours.

## O=C[C@H](O)[C@@H](O)[C@@H](O)[C@H](O)CO [D-galactose]
[1]; 150 mmol/L, pretreated 30 min
  effect of carbohydrate competitor on exosome uptake: caused a significant decrease in exosome uptake

## C=C1[C@@H](C)[C@H]2[C@H](Cc3ccccc3)NC(=O)[C@]23[C@H](OC(C)=O)/C=C/[C@@](C)(O)C(=O)[C@@H](C)C/C=C/[C@H]3[C@@H]1O [cytochalasin D]
[1]; exosomes treated with proteinase K, or transport in presence of D-galactose, excess unlabeled exosomes or cytochalasin D
  decrease of transport rates compared with controls: 50%

## Glu-C: serine protease cleaving at glutamic acid and aspartic acid residues
[2]
  effect on exosome transport: significant decrease in exosome transport into CaCo-2 cells

## MiR-34a: synthetic IRDye-labeled microRNA transfected into bovine milk exosomes; uggcagugucuuagcugguugu, SEQ ID NO: 8 (UGGCAGUGUCUUAGCUGGUUGU; IRDye fluorophore label, position not given here, synthetic)
[3]
  tissue distribution of fluorophore-labeled microRNA transfected into milk exosomes: brain

## miR-30d: microRNA loaded into bovine milk exosomes; uguaaacauccccgacuggaagcu, SEQ ID NO: 13 (UGUAAACAUCCCCGACUGGAAGCU; listed as RNA, further chemistry not given here)
[4]
  presence in embryo and placenta: present in both embryo and placenta

## miR-320a: synthetic IRDye-labeled microRNA transfected into bovine milk exosomes; aaaagcuggguugagagggcga, SEQ ID NO: 10 (AAAAGCUGGGUUGAGAGGGCGA; IRDye fluorophore label, position not given here, synthetic)
[3]; 3 hours after intravenous injection
  tissue distribution of IRDye-labeled microRNA transfected into milk exosomes: accumulated primarily in liver with small amounts being detectable in kidneys, lungs and spleen 3 hours after intravenous injection
[3]; hepatic densitometry 3 hours after intravenous injection vs 6 hours after oral gavage
  apparent bioavailability: 25.4±8.7%
[3]
  tissue distribution of fluorophore-labeled microRNA transfected into milk exosomes: accumulated primarily in liver, spleen and kidneys 6 hours after oral gavage

## miR-375: synthetic 5ATT0633N-labeled microRNA, with or without quencher 3IAbRQSp, transfected into milk exosomes; uuuuguucguucggcucgcguga, SEQ ID NO: 11 (UUUUGUUCGUUCGGCUCGCGUGA; listed as RNA, further chemistry not given here)
[3]; administered orally, signal indicates degradation
  signal of microRNA conjugated to fluorophore and quencher: only a minimal signal was detected in heart and spleen
[3]
  tissue distribution of fluorophore-labeled microRNA transfected into milk exosomes: the signal localized primarily to the intestines, with minor signal being detectable in kidneys, brain and liver; also recorded: accumulated in brain, liver, kidneys and intestinal mucosa in mice

## trypsin
[5]
  exosome uptake: 82%+8%
[6]
  tissue accumulation of exosomes depleted of surface proteins: reduced accumulation of exosomes in the liver and lungs after intravenous injection
[2]; exosomes treated with protease, control 88±1, cell type not named at the place
  transport rates (Vmax): 40±0.6 arbitrary units
[2]
  effect on exosome transport: significant decrease in exosome transport into CaCo-2 cells
